One assay deals with MAPKAP-K2 (Homo sapiens, UniProt P49137). As to the kind of experiment: Kinase activity at ATP Km,app, MAPKAP-K2. The following applies: 40 min, compound 2 μM. It is filed as biochemical. How it is done: (§1) MAPKAP-K2 Kinase Activity: In a final reaction volume of 25 μl, MAPKAP-K2 (h) (5-10 mU) is incubated with 50 mM Na-β-glycerophosphate pH 7.5, 0.1 mM EGTA, 30 mM KKLNRTLSVA, 10 mM MgAcetate and [γ-^33P-ATP] (specific activity approx. 500 cpm/pmol, concentration as required). The reaction is initiated by the addition of the MgATP mix. After incubation for 40 minutes at room temperature, the reaction is stopped by the addition of 5 μl of a 3% phosphoric acid solution. 10 μl of the reaction is then spotted onto a P30 filtermat and washed three times for 5 minutes in 75 mM phosphoric acid and once in methanol prior to drying and scintillation counting.
Chain of MAPKAP-K2 (P49137 whole entry): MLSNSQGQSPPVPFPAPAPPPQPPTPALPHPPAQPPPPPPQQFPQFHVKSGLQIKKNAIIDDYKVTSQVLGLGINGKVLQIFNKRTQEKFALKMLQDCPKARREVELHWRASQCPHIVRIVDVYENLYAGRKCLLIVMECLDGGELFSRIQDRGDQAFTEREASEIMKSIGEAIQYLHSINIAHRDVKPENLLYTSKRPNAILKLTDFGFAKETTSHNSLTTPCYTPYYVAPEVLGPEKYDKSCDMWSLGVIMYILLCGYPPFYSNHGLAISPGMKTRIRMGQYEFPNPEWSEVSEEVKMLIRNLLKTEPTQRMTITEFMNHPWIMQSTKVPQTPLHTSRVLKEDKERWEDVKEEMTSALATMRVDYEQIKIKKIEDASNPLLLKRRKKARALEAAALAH

Another assay concerns the target ERK2 (Homo sapiens, UniProt P28482). As to the kind of experiment: Kinase activity at ATP Km,app, ERK2. As to conditions: compound 2 μM. It is filed as biochemical.
A further assay deals with c-MET (Homo sapiens, UniProt P08581). As to the kind of experiment: Kinase activity at ATP Km,app, c-MET. The following applies: compound 2 μM. It is filed as biochemical. Here is the method:
as §1, with “Met Kinase” for “MAPKAP-K2 Kinase”, “μl, Met” for “μl, MAPKAP-K2”, “with 8” for “with 50”, “mM MOPS” for “mM Na-β-glycerophosphate”, “pH 7.0, 0.2” for “pH 7.5, 0.1”, “mM EDTA, 250 μM KKKSPEGYVNIEFG,” for “mM EGTA, 30 mM KKLNRTLSVA,”

A further assay addresses EGFR (Homo sapiens, UniProt P00533). As to the kind of experiment: Kinase activity at ATP Km,app, EGFR. It is filed as biochemical. The following applies: compound 2 μM.
A further assay has as its system Abl1. As to the kind of experiment: Kinase activity at ATP Km,app, Abl1. Format: biochemical, mouse. The following applies: compound 2 μM. How it is done: as §1, with “Abl” for “MAPKAP-K2”, “activity:” for “Activity:”, “μL, Able (m)” for “μl, MAPKAP-K2 (h)”, “with […] pH 7.0, 0.2 mM EDTA,” for “with”, “μM EAIYAAPFAKKK,” for “mM Na-β-glycerophosphate pH 7.5, 0.1 mM EGTA, 30 mM KKLNRTLSVA,”, “μL” for “μl”

A further assay addresses PKA (Bos taurus, UniProt P00517). As to the kind of experiment: Kinase activity at ATP Km,app, PKA. It is filed as biochemical, bovine. The following applies: 40 min, compound 2 μM. How it is done:
(§2) PKA Kinase Activity: In a final reaction volume of 25 μl, PKA (b) (5-10 mU) is incubated with 8 mM MOPS pH 7.0, 0.2 mM EDTA, 30 μM LRRASLG (Kemptide), 10 mM MgAcetate and [γ-^33P-ATP] (specific activity approx. 500 cpm/pmol, concentration as required). The reaction is initiated by the addition of the MgATP mix. After incubation for 40 minutes at room temperature, the reaction is stopped by the addition of 5 μl of a 3% phosphoric acid solution. 10 μl of the reaction is the spotted onto a P30 filtermat and washed three times for 5 minutes in 50 mM phosphoric acid and once in methanol prior to drying and scintillation counting.

In another assay the target is GSK3-beta (Homo sapiens, UniProt P49841). As to the kind of experiment: Kinase activity at ATP Km,app, GSK3-beta. The following applies: 40 min, compound 2 μM. It is filed as biochemical. Here is the method: as §2, with “GSK3β Kinase” for “PKA Kinase”, “μl, GSK3β (h)” for “μl, PKA (b)”, “[…]” for “8 mM”, “EDTA,[…](p)EDEEE (phosphor GS2 peptide),” for “EDTA, 30 μM LRRASLG (Kemptide),”, “is then” for “is the”
Chain of GSK3-beta (P49841 whole entry): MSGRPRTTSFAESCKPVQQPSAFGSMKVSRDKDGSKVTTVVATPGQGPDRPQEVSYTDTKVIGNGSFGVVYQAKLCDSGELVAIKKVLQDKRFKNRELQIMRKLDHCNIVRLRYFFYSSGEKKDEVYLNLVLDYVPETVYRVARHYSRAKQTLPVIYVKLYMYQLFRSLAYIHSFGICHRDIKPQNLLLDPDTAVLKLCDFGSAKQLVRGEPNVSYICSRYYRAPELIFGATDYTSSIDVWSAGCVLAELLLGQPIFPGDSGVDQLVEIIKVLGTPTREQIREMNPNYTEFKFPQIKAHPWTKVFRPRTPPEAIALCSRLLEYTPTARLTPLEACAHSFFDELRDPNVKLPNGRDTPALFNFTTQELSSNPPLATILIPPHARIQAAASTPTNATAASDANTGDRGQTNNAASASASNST

Another assay has as its target PDGFR-beta (Homo sapiens, UniProt P09619). As to the kind of experiment: Kinase activity at ATP Km,app, PDGFR-beta. It is filed as biochemical. The following applies: 40 min, compound 2 μM. Here is the method:
PDGFRβ Kinase Activity: In a final reaction volume of 25 μl, PDGFRβ (h) (5-10 mU) is incubated with 8 mM MOPS pH 7.0 0.2 mM EDTA, 0.1 mg/ml poly(Glu, Tyr) 4:1, 10 mM MnCl2, 10 mM MgAcetate and [γ-^33P-ATP] (specific activity approx. 500 cpm/pmol, concentration as required). The reaction is initiated by the addition of the MgATP mix. After incubation for 40 minutes at room temperature, the reaction is stopped by the addition of 5 μl of a 3% phosphoric acid solution. 10 μl of the reaction is then spotted onto a Filtermat A and washed three times for 5 minutes in 75 mM phosphoric acid and once in methanol prior to drying and scintillation counting.

The target of the next assay is LynA (Homo sapiens, UniProt P07948). As to the kind of experiment: Kinase activity at ATP Km,app, LynA. Format: biochemical. The following applies: 40 min, compound 2 μM. How it is done: Lyn Kinase Activity: In a final reaction volume of 25 μl, Lyn (h) (5-10 mU) is incubated with 50 mM Tris pH 7.5, 0.1 mM EGTA, 0.1 mM Na3VO4, 0.1% β-mercaptoethanol, 0.1 mg/ml poly(Glue, Tyr) 4:1, 10 mM MgAcetate and [γ-^33P-ATP] (specific activity approx. 500 cpm/pmol, concentration as required). The reaction is initiated by the addition of the MgATP mix. After incubation for 40 minutes at room temperature, the reaction is stopped by the addition of 5 μl of a 3% phosphoric acid solution. 10 μl of the reaction is then spotted onto a Filtermat A and washed three times for 5 minutes in 75 mM phosphoric acid and once in methanol prior to drying and scintillation counting.
Chain of LynA (P07948 whole entry): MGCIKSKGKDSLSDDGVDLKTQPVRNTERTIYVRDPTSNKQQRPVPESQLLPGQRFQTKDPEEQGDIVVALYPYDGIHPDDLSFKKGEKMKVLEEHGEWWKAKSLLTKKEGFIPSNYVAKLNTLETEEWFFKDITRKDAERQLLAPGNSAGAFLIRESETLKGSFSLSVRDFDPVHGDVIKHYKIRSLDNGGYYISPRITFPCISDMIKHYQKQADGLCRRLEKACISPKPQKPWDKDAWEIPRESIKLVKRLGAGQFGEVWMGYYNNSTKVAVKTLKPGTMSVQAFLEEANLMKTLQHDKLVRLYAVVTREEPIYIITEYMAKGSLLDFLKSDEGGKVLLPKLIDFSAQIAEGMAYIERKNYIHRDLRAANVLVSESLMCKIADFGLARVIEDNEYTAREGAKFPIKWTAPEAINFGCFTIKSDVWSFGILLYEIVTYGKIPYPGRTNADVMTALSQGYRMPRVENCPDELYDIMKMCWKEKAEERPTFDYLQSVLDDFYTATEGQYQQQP

A further assay deals with CK2-alpha 1 (Homo sapiens, UniProt P68400). As to the kind of experiment: Kinase activity at ATP Km,app, CK2-alpha 1. As to conditions: compound 2 μM. Format: biochemical.
Chain of CK2-alpha 1 (P68400 whole entry): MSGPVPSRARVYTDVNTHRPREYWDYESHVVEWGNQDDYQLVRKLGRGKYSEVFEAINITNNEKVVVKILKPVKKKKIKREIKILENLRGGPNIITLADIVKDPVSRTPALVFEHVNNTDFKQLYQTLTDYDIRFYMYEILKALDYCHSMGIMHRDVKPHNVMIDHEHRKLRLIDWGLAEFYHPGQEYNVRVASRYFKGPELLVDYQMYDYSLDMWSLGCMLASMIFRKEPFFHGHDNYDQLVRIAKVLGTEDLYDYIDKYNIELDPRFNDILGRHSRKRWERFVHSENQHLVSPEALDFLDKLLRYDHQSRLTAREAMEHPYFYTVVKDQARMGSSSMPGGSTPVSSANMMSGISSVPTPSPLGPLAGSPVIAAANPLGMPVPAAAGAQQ

The values that follow come from patent US7612200B2, “Inhibitors of protein kinases” (Locus Pharmaceuticals, Inc., priority 2004, dated 2009).

As a reminder, the inhibition is the relative decrease from the control value, in per cent.

Chain of c-MET (P08581 25-1390): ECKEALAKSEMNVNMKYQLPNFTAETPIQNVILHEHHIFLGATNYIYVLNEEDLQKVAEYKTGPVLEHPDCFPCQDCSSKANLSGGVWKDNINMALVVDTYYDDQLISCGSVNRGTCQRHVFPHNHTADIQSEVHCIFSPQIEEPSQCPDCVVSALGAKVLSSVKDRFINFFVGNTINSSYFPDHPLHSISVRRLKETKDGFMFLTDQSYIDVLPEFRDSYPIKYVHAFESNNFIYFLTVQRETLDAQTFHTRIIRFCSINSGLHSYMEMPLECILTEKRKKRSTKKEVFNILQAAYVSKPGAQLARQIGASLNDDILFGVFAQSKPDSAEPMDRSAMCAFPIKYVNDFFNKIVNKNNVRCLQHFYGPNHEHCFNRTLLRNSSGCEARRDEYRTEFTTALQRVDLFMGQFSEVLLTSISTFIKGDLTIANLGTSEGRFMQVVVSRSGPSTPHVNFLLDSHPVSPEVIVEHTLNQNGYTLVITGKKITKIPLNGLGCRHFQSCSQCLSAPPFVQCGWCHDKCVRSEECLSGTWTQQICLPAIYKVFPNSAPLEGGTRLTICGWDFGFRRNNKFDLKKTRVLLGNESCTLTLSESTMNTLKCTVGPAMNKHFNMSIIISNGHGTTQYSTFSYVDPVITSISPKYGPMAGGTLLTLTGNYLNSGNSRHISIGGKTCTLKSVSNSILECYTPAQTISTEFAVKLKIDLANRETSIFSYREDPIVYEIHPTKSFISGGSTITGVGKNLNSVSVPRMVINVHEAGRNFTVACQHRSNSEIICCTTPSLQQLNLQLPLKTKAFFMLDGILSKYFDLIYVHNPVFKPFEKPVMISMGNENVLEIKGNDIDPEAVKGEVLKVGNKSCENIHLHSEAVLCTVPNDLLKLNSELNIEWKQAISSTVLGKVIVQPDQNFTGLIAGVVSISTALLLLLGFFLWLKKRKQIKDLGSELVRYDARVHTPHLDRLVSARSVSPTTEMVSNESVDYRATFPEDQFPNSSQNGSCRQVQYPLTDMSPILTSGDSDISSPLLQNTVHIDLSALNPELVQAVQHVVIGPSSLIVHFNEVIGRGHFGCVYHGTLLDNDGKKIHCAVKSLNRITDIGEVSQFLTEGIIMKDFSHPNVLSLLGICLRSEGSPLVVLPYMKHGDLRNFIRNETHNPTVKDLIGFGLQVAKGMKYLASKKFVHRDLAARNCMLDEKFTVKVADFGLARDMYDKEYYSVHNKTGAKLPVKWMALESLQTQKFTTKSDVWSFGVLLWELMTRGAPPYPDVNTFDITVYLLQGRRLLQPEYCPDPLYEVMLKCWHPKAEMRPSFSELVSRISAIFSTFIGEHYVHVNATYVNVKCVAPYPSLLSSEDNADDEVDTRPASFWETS
Chain of PDGFR-beta (P09619 33-1106): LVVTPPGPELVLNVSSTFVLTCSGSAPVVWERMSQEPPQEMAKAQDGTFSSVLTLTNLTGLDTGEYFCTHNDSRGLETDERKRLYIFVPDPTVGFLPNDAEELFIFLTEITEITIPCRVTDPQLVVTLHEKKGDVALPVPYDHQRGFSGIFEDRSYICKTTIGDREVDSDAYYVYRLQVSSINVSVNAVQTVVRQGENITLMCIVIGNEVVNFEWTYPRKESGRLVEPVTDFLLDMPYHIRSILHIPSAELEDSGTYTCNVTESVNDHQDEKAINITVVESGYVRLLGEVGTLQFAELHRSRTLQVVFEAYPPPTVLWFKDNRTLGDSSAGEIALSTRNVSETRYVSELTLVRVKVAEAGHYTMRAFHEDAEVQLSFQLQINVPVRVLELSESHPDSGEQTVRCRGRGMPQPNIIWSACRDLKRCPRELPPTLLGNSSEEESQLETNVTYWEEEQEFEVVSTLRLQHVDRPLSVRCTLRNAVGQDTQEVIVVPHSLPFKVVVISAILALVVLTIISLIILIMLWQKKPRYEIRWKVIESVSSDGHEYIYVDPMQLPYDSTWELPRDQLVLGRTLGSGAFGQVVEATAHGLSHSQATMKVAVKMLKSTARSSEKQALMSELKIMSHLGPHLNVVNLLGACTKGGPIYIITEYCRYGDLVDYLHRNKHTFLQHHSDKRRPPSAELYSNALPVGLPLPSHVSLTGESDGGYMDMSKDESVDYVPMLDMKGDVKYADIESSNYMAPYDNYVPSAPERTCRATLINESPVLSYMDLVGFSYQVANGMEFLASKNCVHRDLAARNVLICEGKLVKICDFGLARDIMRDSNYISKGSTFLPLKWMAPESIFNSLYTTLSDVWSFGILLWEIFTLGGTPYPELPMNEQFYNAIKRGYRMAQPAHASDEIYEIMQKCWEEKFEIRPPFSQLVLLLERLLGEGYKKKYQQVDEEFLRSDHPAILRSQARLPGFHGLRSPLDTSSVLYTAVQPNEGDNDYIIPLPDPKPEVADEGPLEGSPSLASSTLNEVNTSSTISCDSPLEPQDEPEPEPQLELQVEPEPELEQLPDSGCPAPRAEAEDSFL
Chain of ERK2 (P28482 whole entry, species assumed): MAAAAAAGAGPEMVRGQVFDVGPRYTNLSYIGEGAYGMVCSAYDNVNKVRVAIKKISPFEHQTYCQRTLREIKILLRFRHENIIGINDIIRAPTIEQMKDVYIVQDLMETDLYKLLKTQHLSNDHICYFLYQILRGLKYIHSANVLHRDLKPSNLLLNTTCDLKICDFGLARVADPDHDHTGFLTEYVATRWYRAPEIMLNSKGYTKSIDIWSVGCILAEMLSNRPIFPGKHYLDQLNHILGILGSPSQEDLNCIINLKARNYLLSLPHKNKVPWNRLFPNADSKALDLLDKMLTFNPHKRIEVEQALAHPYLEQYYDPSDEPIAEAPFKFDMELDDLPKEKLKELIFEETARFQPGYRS

Turning to `CC(C)(C)c1cc(C(=O)N2CCNC(=O)C2)c(NC(=O)Nc2ccc(Oc3ccncc3)cc2)s1` [Example 2, 1-(5-tert-Butyl-3-(3-oxo-piperazine-1-carbonyl)thiophen-2-yl)-3-(4-(pyridin-4-yloxy)phenyl)urea], the inhibition at 2 µM on MAPKAP-K2 lay within 0 to 25%; against ERK2 it was 0 to 25%; against PKA, 0 to 25%; against GSK3-beta it was 0 to 25%; against PDGFR-beta it was 26 to 50%; at LynA it was 26 to 50%. The same compound returned an inhibition at 2 µM against CK2-alpha 1 of 0 to 25%. Moreover, the figures for the “% Inhibition at ATP Km,app” value on c-MET, on EGFR and in the assay with Abl1 were 26-50%, 0-25% and 0-25%, respectively.
Turning to `CC(C)(C)c1cc(C(=O)N2CCNS(=O)(=O)CC2)c(NC(=O)Nc2ccc(Oc3ccncc3)cc2)s1` [Example 1, 1-(5-tert-Butyl-3-(1,1-dioxo-1λ^6-[1,2,5]thiadiazepane-5-carbonyl)thiophen-2-yl)-3-(4-(pyridin-4-yloxy)phenyl)urea], the inhibition at 2 µM is 0 to 25% against MAPKAP-K2; 0 to 25% at ERK2; 0 to 25% at PKA; 0 to 25% against GSK3-beta; 26 to 50% on PDGFR-beta; 26 to 50% at LynA. The same compound had an inhibition at 2 µM against CK2-alpha 1 of 0 to 25%. The “% Inhibition at ATP Km,app” value on c-MET, at EGFR and in the assay with Abl1 was 0-25% each time.
Regarding `CC(C)(C)c1cc(C(=O)N2CCNC(=O)CC2)c(NC(=O)Nc2ccc(Oc3ccncc3)cc2)s1` [Example 4, 1-(5-tert-Butyl-3-(5-oxo-[1,4]diazepane-1-carbonyl)thiophen-2-yl)-3-(4-(pyridin-4-yloxy)phenyl)urea], the inhibition at 2 µM against MAPKAP-K2 lay in the range of 0 to 25%; on ERK2 it was 0 to 25%; against PKA, 0 to 25%; at GSK3-beta it was 0 to 25%; on PDGFR-beta it was 26 to 50%; against LynA, 51 to 76%. On CK2-alpha 1, the inhibition at 2 µM is 0 to 25%. Besides, the “% Inhibition at ATP Km,app” value at c-MET, on EGFR and with Abl1 was 0-25% each time.
